Entries after “also recorded” stand apart in the source; their conditions may differ. Read-outs that look alike come from different tables or passages of the source.
Columns and labels:
[1] = biological target: T1, AMPK regulatory fragment (rat His-α1, 396-548; human β2, 187-272; rat γ1) (Rattus norvegicus, UniProt P80385); experiment: MANT-ADP fluorescence displacement (binding) assay, AMPK regulatory fragment; settings: MANT-ADP with no protein = 100% inhibition, read-out: IC50, inhibition of the increase in MANT-ADP fluorescence
T1 construct: rat His-α1, 396-548; human β2, 187-272; rat γ1; made in house; host or cells: Rosetta cells (E. coli), tricistronic vector, gift of Dr. Steve Gamblin
T1 sequence (P54645 407-559 partner limits assumed): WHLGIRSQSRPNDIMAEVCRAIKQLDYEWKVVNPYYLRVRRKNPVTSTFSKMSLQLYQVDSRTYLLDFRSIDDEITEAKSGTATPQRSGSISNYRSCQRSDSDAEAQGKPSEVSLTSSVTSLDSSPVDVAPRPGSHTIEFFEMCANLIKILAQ
T1 sequence (O43741 187-272 partner limits assumed): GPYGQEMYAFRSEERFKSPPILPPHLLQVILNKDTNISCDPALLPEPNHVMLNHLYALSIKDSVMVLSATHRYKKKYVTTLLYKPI
T1 sequence (P80385 whole entry, the tested form may be a part): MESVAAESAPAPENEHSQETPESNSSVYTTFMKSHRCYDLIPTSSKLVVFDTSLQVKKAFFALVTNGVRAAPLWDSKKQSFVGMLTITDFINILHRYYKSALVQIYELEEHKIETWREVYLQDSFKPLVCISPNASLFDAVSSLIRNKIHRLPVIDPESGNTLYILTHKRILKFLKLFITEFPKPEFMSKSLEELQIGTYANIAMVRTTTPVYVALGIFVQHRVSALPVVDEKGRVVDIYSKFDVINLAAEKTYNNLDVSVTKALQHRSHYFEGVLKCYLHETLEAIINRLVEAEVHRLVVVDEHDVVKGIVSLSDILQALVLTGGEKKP
Procedure: (§1) Except where otherwise noted, assays were performed with the following conditions: 0.5 μM full-length AMPK (130 kDa) or 0.5 μM regulatory fragment (66.7 kDa), 0.1 μM MANT-ADP, 10 mM Tris-HCl (pH 8), 0.45% DMSO (vehicle and negative control), and 5 μM ADP (positive control). Automated assays were assembled in two steps. First, a NanoQuot (BioTek) was used to dispense 11 μL of master mix (protein, MANT-ADP, and Tris-HCl) per well in black, low volume 384-well plates (Corning-3676). Next, a Biomek NX workstation (Beckman-Coulter, Brea, Calif.) equipped with pintools (VP Scientific, San Diego Calif.) was used to transfer 50 nL of controls (columns 1, 2, 23, and 24) and small molecules (4.5 μM final). Controls and library molecules were transferred from Axygen 384-well rigid PCR plates (Cat no. 321-67-051) at 221× concentration for single-concentration screening. Plates were shaken for 10 minutes prior to reading.
(§2) Fluorescence emission spectra of MANT-ADP were collected using a PerkinElmer EnSpire plate reader with an excitation wavelength of 360 nm. Background fluorescence from protein was subtracted from the raw data prior to plotting MANT-ADP's fluorescence in the presence of protein. Fluorescence detection for assay development and screening was performed on either a BMG Pherastar Plus (360/10 excitation and 460/10 emission filters) or a PerkinElmer EnVision (355/40 excitation and 460/25 emission filters), depending on equipment availability. Relative fluorescence units (RFUs) were recorded at room temperature.
(§3) ScreenAble (ScreenAble Solutions, Chapel Hill, N.C.) high-throughput screening software was utilized for merging screening data and chemical structure, for statistical design of experiments, and hit selection. GraphPad Prism was used for non-linear regression analysis of dose response data.
(§4) Binding assays. Except where otherwise noted, assay assembly and data analysis were completed according to published methods. Binding assays were manually assembled, with the exception of the similarity screen. Automated assembly of the similarity screen was completed according to published methods. Analogs were cherry-picked from a 10 mM Asinex small molecule library and a 0.5 mM kinase focused library, which has been described previously (4). Molecules were screened at a final concentration of 45 and 2.3 μM, respectively.

full-length His-AMPK = biological target: T2, full-length His-AMPK (Rattus norvegicus, UniProt P54645+P80385); experiment: Isothermal titration calorimetry; type: binding; settings: both sites; 5 mM phosphate buffer (pH 7.4), room temperature; n=1; read-out: calculated dissociation constants
T2 construct: Tricistronic vectors encoding full-length AMPK (rat His-α1, β1, γ1); made in house; host or cells: Rosetta cells (E. coli), tricistronic vector, gift of Dr. Uwe Schlattner
T2 sequence (P54645 with tags, fused parts or gaps limits assumed): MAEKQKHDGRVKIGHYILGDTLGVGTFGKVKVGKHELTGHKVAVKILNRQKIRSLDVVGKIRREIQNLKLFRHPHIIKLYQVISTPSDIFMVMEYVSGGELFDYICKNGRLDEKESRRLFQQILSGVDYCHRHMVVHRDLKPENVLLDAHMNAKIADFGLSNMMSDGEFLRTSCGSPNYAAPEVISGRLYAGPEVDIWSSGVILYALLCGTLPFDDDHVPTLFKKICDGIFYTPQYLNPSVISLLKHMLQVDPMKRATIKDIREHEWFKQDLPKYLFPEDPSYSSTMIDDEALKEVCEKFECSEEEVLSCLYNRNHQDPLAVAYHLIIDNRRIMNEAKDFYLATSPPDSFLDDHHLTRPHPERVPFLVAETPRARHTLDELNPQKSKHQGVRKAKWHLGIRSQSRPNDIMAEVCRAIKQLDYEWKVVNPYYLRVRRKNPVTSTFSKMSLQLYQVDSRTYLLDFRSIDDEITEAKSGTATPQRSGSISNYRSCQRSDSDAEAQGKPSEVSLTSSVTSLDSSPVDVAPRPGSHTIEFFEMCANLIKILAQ
T2 sequence (P80386 whole entry partner): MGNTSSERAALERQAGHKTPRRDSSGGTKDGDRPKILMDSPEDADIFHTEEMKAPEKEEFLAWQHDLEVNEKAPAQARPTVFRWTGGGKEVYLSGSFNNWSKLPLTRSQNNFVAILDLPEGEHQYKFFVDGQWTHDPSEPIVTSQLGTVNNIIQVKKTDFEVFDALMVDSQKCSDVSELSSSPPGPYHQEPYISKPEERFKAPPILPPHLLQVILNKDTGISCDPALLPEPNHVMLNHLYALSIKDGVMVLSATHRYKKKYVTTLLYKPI
T2 sequence (P80385 whole entry): as the sequence (P80385 whole entry, the tested form may be a part) above
Procedure: ITC. A MicroCal Auto-iTC200 system (GE Healthcare, Pittsburgh, Pa.) was used to study binding interactions between ADP and full-length His-AMPK at room temperature in the presence of 5 mM phosphate buffer (pH 7.4). To decrease the ionic strength of the buffer, full-length AMPK frozen in 50 mM phosphate buffer was thawed, diluted in 5 mM phosphate buffer (pH 7.4) and then concentrated via centrifugal filtration. At the start of the ITC experiment, the concentrations of His-AMPK (in the sample cell) and ADP (in the syringe) were 70 μM and 1.4 mM, respectively.

[2] = biological target: T3, full-length AMPK (rat His-α1, β1, γ1) (Rattus norvegicus, UniProt P54645+P80385); experiment: MANT-ADP fluorescence displacement (binding) assay, full-length AMPK; settings: for displacement of MANT-ADP: full-length AMPK compared with regulatory fragment: compared in parallel; for IC50: full-length AMPK; for inhibition of the protein-bound signal of MANT-ADP in the triplicate similarity screen: final concentration 45 μM
T3 construct: Tricistronic vectors encoding full-length AMPK (rat His-α1, β1, γ1); made in house; host or cells: Rosetta cells (E. coli), tricistronic vector, gift of Dr. Uwe Schlattner
T3 sequence (P54645 with tags, fused parts or gaps limits assumed): as the sequence (P54645 with tags, fused parts or gaps limits assumed) above
T3 sequence (P80386 whole entry partner, the tested form may be a part): as the sequence (P80386 whole entry partner) above
T3 sequence (P80385 whole entry, the tested form may be a part): as the sequence (P80385 whole entry, the tested form may be a part) above
Procedure: as §1, §2, §3, §4

[3] = test system: p-AMPK levels in HEK cells; experiment: Cell-intact assay, p-AMPK levels in HEK cells; type: cell-based, human; settings: serum starvation followed by 10% serum; 1 hour
Procedure: (§5) Cell-intact assays. HEK cells were grown in DMEM with 10% FBS and 1% penicillin/streptomycin at 37° C. A subset of plates was serum-starved for 5 hours on the day of the experiment. After 5 hours of serum-starvation, cells were treated with either controls (0.2% DMSO, A-769662, or Compound C) or small molecules in the absence of serum for an additional hour prior to lysis. Another subset of plates was serum-starved for 6 hours and then treated with either controls or small molecules for 1 hour in the presence of 10% FBS. A time course of both AMPK and ACC phosphorylation in HEK cells during serum starvation has already been published (Pirkmajer S, Chibalin A V. Serum starvation: caveat emptor. American journal of physiology Cell physiology. 2011 August; 301(2):C272-9. PubMed PMID: 2161361).
After incubating in the presence of drugs for one hour, cells were washed three times with ice-cold PBS and lysed according to published methods (Kazgan N, Williams T, Forsberg L J, Brenman J E. Identification of a nuclear export signal in the catalytic subunit of AMP-activated protein kinase. Molecular biology of the cell. 2010 Oct. 1; 21(19):3433-42. PubMed PMID: 20685962. Pubmed Central PMCID: 2947478). […] The concentration of protein in diluted clarified supernatant was calculated using a DC protein assay kit (BioRad) prior to western analyses. […]

[4] = test system: p-ACC levels in HEK cells; experiment: Cell-intact assay, p-ACC levels in HEK cells; type: cell-based, human; settings: for p-ACC levels (substrate phosphorylation), pre-conditioned HEK cells: serum starvation followed by 10% serum, 1 hour
Procedure: as §5
After incubating in the presence of drugs for one hour, cells were washed three times with ice-cold PBS and lysed according to published methods (Kazgan N, Williams T, Forsberg L J, Brenman J E. Identification of a nuclear export signal in the catalytic subunit of AMP-activated protein kinase. Molecular biology of the cell. 2010 Oct. 1; 21(19):3433-42. PubMed PMID: 20685962. Pubmed Central PMCID: 2947478). Lysates were centrifuged at 16,000 g (10 minutes, 4° C.). Clarified supernatant (30 μL) was then transferred to 10 μL 4X loading buffer and 2 μL 1 M DTT. Samples were immediately frozen at −20° C. The concentration of protein in diluted clarified supernatant was calculated using a DC protein assay kit (BioRad) prior to western analyses.
(§6) Western analyses. Protein samples were boiled for 15 minutes in loading buffer and DTT prior to SDS-PAGE. Blots for protein-based assays were sequentially incubated with the following: 5% BSA in 1× TBS (1 hr, 22° C.), 1:1000 rabbit anti-human p-AMPK-α antibody or p-ACC antibody (2 hr, 22° C.), and 1:10,000 donkey anti-rabbit secondary antibody (1 hr, 22° C.). Blots for phosphatase assays were probed a second time using 1:100 mouse anti-human total AMPK antibody (overnight, 4° C.; from UNC Antibody Core Facility) followed by 1:10,000 donkey anti-mouse secondary antibody (1 hr, 22° C.). Blots for clarified cell lysates were sequentially probed for p-AMPK (1:500 dilution, overnight at 4° C. or 4 hours at 22° C.), total ACC (1:1000 dilution, overnight at 4° C. or 4 hours at 22° C.), and tubulin (1:10,000 dilution, 1 hr, 22° C.); a parallel set of blots were probed for p-ACC (1:500 dilution, overnight at 4° C. or 4 hours at 22° C.), total AMPK (1:1000 dilution, overnight at 4° C. or 4 hours at 22° C.), and tubulin (1:10,000 dilution, 1 hr, 22° C.). Because phosphorylated and total protein were imaged on separate membranes, the signals were normalized to the internal tubulin signal prior to calculating the ratio of phosphorylated to total protein. Scanning and imaging were completed according to published methods.

[5] = biological target: T4, p-AMPK in the presence of PP2C (Rattus norvegicus, UniProt P54645+P80385); experiment: Phosphatase assay: protection of p-AMPK from dephosphorylation by PP2C; type: biochemical; settings: p-AMPK/total AMPK ratio normalized to no-PP2C control
T4 construct: Full-length AMPK intended for use in phosphatase and kinase assays was purified, mixed with GST-CaMKKβ; made in house; host or cells: Rosetta cells (E. coli); phosphorylated in vitro with GST-CaMKKβ, which was then removed
T4 sequence (P54645 with tags, fused parts or gaps limits assumed): as the sequence (P54645 with tags, fused parts or gaps limits assumed) above
T4 sequence (P80386 whole entry partner): as the sequence (P80386 whole entry partner) above
T4 sequence (P80385 whole entry): as the sequence (P80385 whole entry, the tested form may be a part) above
Procedure: Phosphatase assays. Assay conditions were adapted from published methods (18). In short, the final assay buffer was compromised of 50 mM Tris (pH 7.5), […], 0.01% Triton X-100, 1 mM DTT, and 0.45% DMSO (vehicle). Because some analogs had poor solubility at high concentrations, all analogs and controls were diluted in assay buffer and centrifuged (1 min, 5000 rpm, 4° C.) to remove insoluble matter. PP2C and p-AMPK were added to the supernatant at final concentrations of 2 and 3 ng/μL, respectively. Phosphatase reactions were allowed to proceed for 30 minutes at 37° C. Reactions were stopped by the addition of loading buffer and 48 mM DTT followed promptly by freezing at −20° C.
Western analyses. Protein samples were boiled for 15 minutes in loading buffer and DTT prior to SDS-PAGE. Blots for protein-based assays were sequentially incubated with the following: 5% BSA in 1× TBS (1 hr, 22° C.), 1:1000 rabbit anti-human p-AMPK-α antibody or p-ACC antibody (2 hr, 22° C.), and 1:10,000 donkey anti-rabbit secondary antibody (1 hr, 22° C.). Blots for phosphatase assays were probed a second time using 1:100 mouse anti-human total AMPK antibody (overnight, 4° C.; from UNC Antibody Core Facility) followed by 1:10,000 donkey anti-mouse secondary antibody (1 hr, 22° C.). […]

HEK cells = experiment: Cell-intact assay, attachment of HEK cells to tissue culture plates; type: cell-based, human; settings: absence of serum
Procedure: as §5

purified p-AMPK = biological target: T5, purified p-AMPK (Rattus norvegicus, UniProt P54645+P80385); experiment: Kinase assay with purified p-AMPK and GST-ACC peptide; type: biochemical
T5 construct: Full-length AMPK intended for use in phosphatase and kinase assays was purified, mixed with GST-CaMKKβ; made in house; host or cells: Rosetta cells (E. coli); phosphorylated in vitro with GST-CaMKKβ, which was then removed on glutathione resin
T5 sequence (P54645 with tags, fused parts or gaps limits assumed): as the sequence (P54645 with tags, fused parts or gaps limits assumed) above
T5 sequence (P80386 whole entry partner): as the sequence (P80386 whole entry partner) above
T5 sequence (P80385 whole entry): as the sequence (P80385 whole entry, the tested form may be a part) above
Procedure: Kinase assays. Assay conditions were adapted from published methods (17). The final assay buffer was comprised of 40 mM Hepes (pH 7.4) 5 mM MgCl2, 200 μM ATP, 75 mM NaCl, 0.01% Triton X-100, 1 mM DTT, and 0.45% DMSO (vehicle). Because some analogs had poor solubility at high concentrations, all analogs and controls were diluted in assay buffer and centrifuged (1 min, 5000 rpm, 4° C.) to remove insoluble matter. GST-ACC peptide and p-AMPK were thawed, diluted in assay buffer, and then added to the supernatant at final concentrations of 900 and 0.1 ng/μL, respectively. Kinase assays were assembled on ice; reactions were allowed to proceed for 30 minutes at room temperature. Reactions were stopped by the addition of loading buffer and 48 mM DTT followed promptly by freezing at −20° C.
as §6

[6] = Example 4, read-out: binding IC50

Compound | IC50 [1] | Kd (full-length His-AMPK) | displacement of MANT-ADP: full-length AMPK compared with regulatory fragment [2] | IC50 ([2]; MANT-ADP with no protein = 100% inhibition, read-out: IC50, inhibition of the increase in MANT-ADP fluorescence) | p-AMPK levels, pre-conditioned HEK cells [3] | p-ACC levels (substrate phosphorylation), pre-conditioned HEK cells [4] | protection of p-AMPK from dephosphorylation [5] | inhibition of the protein-bound signal of MANT-ADP in the triplicate similarity screen [2] | IC50 [2, 6] | detachment of cells from tissue culture plates (HEK cells) | activity of purified p-AMPK (phosphorylation of GST-ACC peptide), dose response (purified p-AMPK; compared to DMSO control) | dose response when repeated with an additional concentration at 1 μM (purified p-AMPK; high p-GST-ACC peptide at both 1 and 40 μM, data not shown) | substrate phosphorylation at higher doses (purified p-AMPK; higher doses) | p-ACC levels, serum-treated HEK cells ([4]; 10% serum)
Nc1ncnc2c1ncn2[C@@H]1O[C@H](COP(=O)(O)OP(=O)(O)O)[C@@H](O)[C@H]1O [ADP, adenosine diphosphate, reference compound] | 400 nM | 13000 nM | same binding IC50; also recorded: same concentration | 300 nM | – | – | – | – | – | – | – | – | – | –
N#Cc1c(O)c2c(-c3ccc(-c4ccccc4O)cc3)csc2[nH]c1=O [Example A-769662, reference compound] | – | – | – | – | increased | increased | – | – | – | – | – | – | – | –
CCCOC(=O)c1cc(-c2ccc(/C=C3\SC(=S)NC3=O)o2)ccc1Cl [BAS 03338548, Propyl 2-chloro-5-(5-{[(5Z)-4-oxo-2-sulfanylidene-1,3-thiazolidin-5-ylidene]methyl}furan-2-yl)benzoate] | – | – | – | – | – | – | failed to protect | reproducibly inhibited | < 5000 nM | – | – | – | – | –
O=C1/C(=C/c2ccc(-c3ccc(Cl)c(Cl)c3)o2)SC(=S)N1CCS(=O)(=O)O [BAS 02250954, 2-[(5Z)-5-{[5-(3,4-Dichlorophenyl)furan-2-yl]methylidene}-4-oxo-2-sulfanylidene-1,3-thiazolidin-3-yl]ethane-1-sulfonic acid] | – | – | greater concentration | – | high levels of p-AMPK | no change in substrate phosphorylation; also recorded: does not increase | protected p-AMPK from dephosphorylation | reproducibly inhibited | < 5000 nM | caused many cells to detach | significantly inhibited substrate phosphorylation at low doses; also recorded: inhibits substrate phosphorylation | complete U-shaped dose response | permitted substrate phosphorylation | decreased substrate phosphorylation

— patent US20160176859A1, “High-Throughput Assay for Identifying Small Molecules that Modulate AMP-activated Protein Kinase (AMPK)” (North Carolina Central University, priority 2013, published 2016)
